The record followed here is patent publication US9328138B2 (priority 2011, dated 2016).

Counter-ions that a name gives are not always drawn.

The target in experiment [1] is HCV NS3 protease genotype 3a (3A-1) (Hepatitis C virus genotype 3a, UniProt Q81258). Nature of the experiment: HCV NS3 protease time-resolved fluorescence (TRF) assay, genotype 3a. It counts as biochemical. Particulars: Ki 3a. A digest of the protocol: (§1)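 NS3/NS4A protease was pre-incubated 10 min with inhibitor in 50 mM HEPES pH 7.5, 150 mM NaCl, 15% glycerol, 0.15% Triton X-100, 10 mM DTT, 0.1% PEG 8000. TRF peptide substrate (25 nM final) was hydrolysed for 6 h at room temperature. IC50 came from four-parameter fits.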

Experiment [2] concerns the target T1, HCV genotype 1b (BK) NS3 modified enzyme with a R155K mutation (Hepatitis C virus genotype 1b, UniProt P26663, R1181K).
T1 construct: HCV genotype 1b (BK) NS3 modified enzyme
The experiment is described as follows: HCV NS3 protease time-resolved fluorescence (TRF) assay, genotype 1b R155K. It counts as biochemical. Particulars: Ki 1b R155K. A digest of the protocol:
as §1

[3] abbreviates: genotype 1b (BK) NS3 R155K, single value.
Where [4] appears, read: first of two values printed in the cell (not explained).
The mark [5] stands for this setting: second of two values printed in the cell (not explained).

On to `C=C[C@@H]1C[C@]1(NC(=O)[C@@H]1C[C@@H]2CN1C(=O)[C@H](C1CCCC1)NC(=O)O[C@@H]1CCC[C@H]1CC/C=C/Cc1c(nc3ccccc3c1O)O2)C(=O)NS(=O)(=O)C1CC1` [Example 17, (3aR,7S,10S,12R,21E,24aS)-7-cyclopentyl-N-{(1R,2S)-1-[(cyclopropylsulfonyl)carbamoyl]-2-ethenylcyclopropyl}-19-hydroxy-5,8-dioxo-1,2,3,3a,5,6,7,8,11,12,20,23,24,24a-tetradecahydro-10H-9,12-methanocyclopenta[18,19][1,10,3,6]dioxadiazacyclononadecino[11,12-b]quinoline-10-carboxamide], for which the Ki in experiment [1] was 0.45 nM; in experiment [2] (setting [3]) it was under 0.016 nM.
The matching figures for `C=C[C@@H]1C[C@]1(NC(=O)[C@@H]1C[C@@H]2CN1C(=O)[C@H](C1CCCC1)NC(=O)O[C@@H]1CCC[C@H]1CC/C=C/Cc1c(nc3cc(Cl)ccc3c1OC)O2)C(=O)NS(=O)(=O)C1CC1` [Example 9, (3aR,7S,10S,12R,21E,24aS)-16-chloro-7-cyclopentyl-N-{(1R,2S)-1-[(cyclopropylsulfonyl)carbamoyl]-2-ethenylcyclopropyl}-19-methoxy-5,8-dioxo-1,2,3,3a,5,6,7,8,11,12,20,23,24,24a-tetradecahydro-10H-9,12-methanocyclopenta [18,19][1,10,3,6]dioxadiazacyclononadecino [11,12-b]quinoline-10-carboxamide]: 2.9 nM and 0.14 nM.
With `C=C[C@@H]1C[C@]1(NC(=O)[C@@H]1C[C@@H]2CN1C(=O)[C@H](C(C)(C)C)NC(=O)O[C@@H]1C[C@H]1CCCCCc1c(nc3ccccc3c1OCCN1CCOCC1)O2)C(=O)NS(=O)(=O)C1(C)CC1` [Example 113, (1aR,5S,8S,10R,22aR)-5-tert-butyl-N-[(1R,2S)-2-ethenyl-1-{[(1-methylcyclopropyl)sulfonyl]carbamoyl}cyclopropyl]-17-[2-(morpholin-4-yl)ethoxy]-3,6-dioxo-1,1a,3,4,5,6,9,10,18,19,20,21,22,22a-tetradecahydro-8H-7,10-methanocyclopropa[18,19][1,10,3,6]dioxadiazacyclononadecino[11,12-b]quinoline-8-carboxamide], the Ki stood at 1.6 nM in experiment [1] and 0.09 nM in experiment [2] (setting [3]).
With `C=C[C@@H]1C[C@]1(NC(=O)[C@@H]1C[C@@H]2CN1C(=O)[C@H](C1CCCCC1)NC(=O)O[C@@H]1C[C@H]1CCCCCc1c(nc3ccccc3c1OC1CCN(CC3CC3)CC1)O2)C(=O)NS(=O)(=O)C1(C)CC1` [Example 238, 4-{[(1aR,5S,8S,10R,22aR)-5-cyclohexyl-8-{[(1R,2S)-2-ethenyl-1-{[(1-methylcyclopropyl)sulfonyl]carbamoyl}cyclopropyl]carbamoyl}-3,6-dioxo-1,1a,3,4,5,6,9,10,18,19,20,21,22,22a-tetradecahydro-8H-7,10-methanocyclopropa[18,19][1,10,3,6]dioxadiazacyclononadecino[11,12-b]quinolin-17-yl]oxy}-1-(cyclopropylmethyl)piperidinium formate], the Ki is 0.9 nM in experiment [1], 0.031 nM in experiment [2] (setting [4]) and 0.047 nM in experiment [2] (setting [5]).
Turning to `C=C[C@@H]1C[C@]1(NC(=O)[C@@H]1C[C@@H]2CN1C(=O)[C@H](C(C)(C)C)NC(=O)O[C@@H]1CCC[C@H]1CC/C=C\Cc1c(nc3ccccc3c1OC)O2)C(=O)NS(=O)(=O)C1CC1` [Example 7, (3aR,7S,10S,12R,21Z,24aS)-7-tert-butyl-N-{(1R,2S)-1-[(cyclopropylsulfonyl)carbamoyl]-2-ethenylcyclopropyl}-19-methoxy-5,8-dioxo-1,2,3,3a,5,6,7,8,11,12,20,23,24,24a-tetradecahydro-10H-9,12-methanocyclopenta[18,19][1,10,3,6] dioxadiazacyclononadecino[11,12-b]quinoline-10-carboxamide], the figures for the inhibition constant (Ki) in experiment [1] and in experiment [2] (setting [3]) were 17 nM and 0.76 nM, respectively.
`C=C[C@@H]1C[C@]1(NC(=O)[C@@H]1C[C@@H]2CN1C(=O)[C@H](C(C)(C)C)NC(=O)O[C@@H]1CCC[C@H]1CC/C=C/Cc1c(nc3ccccc3c1OCCCOCCOC)O2)C(=O)NS(=O)(=O)C1(C)CC1` [Example 56, (3aR,7S,10S,12R,21E,24aS)-7-tert-butyl-N-[(1R,2S)-2-ethenyl-1-{[(1-methylcyclopropyl)sulfonyl]carbamoyl}cyclopropyl]-19-[3-(2-methoxyethoxy)propoxy]-5,8-dioxo-1,2,3,3a,5,6,7,8,11,12,20,23,24,24a-tetradecahydro-10H-9,12-methanocyclopenta[18,19][1,10,3,6]dioxadiazacyclononadecino[11,12-b] quinoline-10-carboxamide]: the inhibition constant (Ki) was 0.95 nM in experiment [1] and 0.09 nM in experiment [2] (setting [3]).
For `C=C[C@@H]1C[C@]1(NC(=O)[C@@H]1C[C@@H]2CN1C(=O)[C@H](C1CCCC1)NC(=O)O[C@@H]1CCC[C@H]1CC/C=C/Cc1c(nc3ccccc3c1OCCCOP(=O)(O)O)O2)C(=O)NS(=O)(=O)C1CC1` [Example 95, 3-{[(3aR,7S,10S,12R,21E,24aS)-7-cyclopentyl-10-({(1R,2S)-1-[(cyclopropylsulfonyl)carbamoyl]-2-ethenylcyclopropyl}carbamoyl)-5,8-dioxo-1,2,3,3a,5,6,7,8,11,12,20,23,24,24a-tetradecahydro-10H-9,12-methanocyclopenta[18,19][1,10,3,6]dioxadiazacyclononadecino[11,12-b]quinolin-19-yl]oxy}propyl dihydrogen phosphate], in that order: 1 nM and 0.18 nM.
For `C=C[C@@H]1C[C@]1(NC(=O)[C@@H]1C[C@@H]2CN1C(=O)[C@H](C1CCCCC1)NC(=O)O[C@@H]1C[C@H]1CCCCCc1c(nc3ccccc3c1OCCCN1CCCOCC1)O2)C(=O)NS(=O)(=O)C1(C)CC1` [Example 168, (1aR,5S,8S,10R,22aR)-5-cyclohexyl-N-[(1R,2S)-2-ethenyl-1-{[(1-methylcyclopropyl)sulfonyl]carbamoyl}cyclopropyl]-17-[3-(1,4-oxazepan-4-yl)propoxy]-3,6-dioxo-1,1a,3,4,5,6,9,10,18,19,20,21, 22,22a-tetradeca hydro-8H-7,10-methanocyclopropa[18,19][1,10,3,6] dioxadiazacyclononadecino[11,12-b] quinoline-8-carboxamide], the Ki in experiment [1] came out at 1.3 nM; in experiment [2] (setting [3]) it was 0.078 nM.
`C=C[C@@H]1C[C@]1(NC(=O)[C@@H]1C[C@@H]2CN1C(=O)[C@H](C(C)(C)C)NC(=O)O[C@@H]1C[C@H]1CCCCCc1c(nc3ccccc3c1OC1CCN(CC(F)(F)F)CC1)O2)C(=O)NS(=O)(=O)C1(C)CC1` [Example 234, (1aR,5S,8S,10R,22aR)-5-tert-butyl-N-[(1R,2S)-2-ethenyl-1-{[(1-methylcyclopropyl)sulfonyl]carbamoyl}cyclopropyl]-3,6-dioxo-17-{[1-(2,2,2-trifluoroethyl)piperidin-4-yl]oxy}-1,1a,3,4,5,6,9,10,18,19,20,21,22,22a-tetradecahydro-8H-7,10-methanocyclopropa[18,19][1,10,3,6]dioxadiazacyclononadecino[11,12-b]quinoline-8-carboxamide]: the Ki in experiment [1] was 29.1 nM; in experiment [2] (setting [4]) it was 0.08 nM; in experiment [2] (setting [5]) it was 1.38 nM.
